≈ marks a conversion by molar mass, not a printed value.
Assays:
Type in all cases: functional
[1] = system: Mycolicibacterium smegmatis; experiment: Antimycobacterial activity against Mycobacterium smegmatis CIP7326 assessed as inhibition of mycobacterial growth incubated for 24 hrs by broth microdilution method
[2] = Antimycobacterial activity against Mycobacterium abscessus subsp. bolletii assessed as inhibition of mycobacterial growth incubated for 2 to 3 days by broth microdilution method; conditions: Mycobacteroides abscessus; time 2-3 day
Pseudomonas aeruginosa = experiment: Antibacterial activity against Pseudomonas aeruginosa ATCC 15442 assessed as inhibition of bacterial growth incubated for 24 hrs by broth microdilution method

In the case of `CO[C@H]1/C=C/O[C@@]2(C)Oc3c(C)c(O)c4c(O)c(c(/C=N/N5CCN(C)CC5)c(O)c4c3C2=O)NC(=O)/C(C)=C\C=C\[C@H](C)[C@H](O)[C@@H](C)[C@@H](O)[C@@H](C)[C@H](OC(C)=O)[C@@H]1C` [RIFAMPIN], the MIC [1] is reported as 0.1 µg/mL (≈ 0.122 µM) and the MIC [2] is reported as 0.1 µg/mL (≈ 0.122 µM).

Work on cetrimide yielded an MIC (Pseudomonas aeruginosa) of 0.1 µg/mL.

Reference: ChEMBL document CHEMBL4840341, “Voatriafricanines A and B, Trimeric Vobasine-Aspidosperma-Aspidosperma Alkaloids from Voacanga africana” (J Nat Prod, 2021)
